Reference: article PMC5617979, “Comparative Study on Antistaphylococcal Activity of Lipopeptides in Various Culture Media” (Antibiotics, 2017)
Positions of bridges follow the written chain, without caps; N, C: chain ends. No end group written: not given here.

Tests used:
[1] = tested on: Staphylococcus; conditions: previously described compounds; cited from earlier work
Source text: All of the lipopeptides are palmitoylated at N-terminus and contain three or four basic amino acid residues. Moreover, compounds are amidated at C-termini to maximize positive charge. […] Arginine, as a basic amino acid, introduce positive charge; however, it has more hydrogen donor atoms and is more basic (pKa~1 ...

[2] = tested on: Staphylococcus aureus (five reference strains ATCC 25923, ATCC 6538, ATCC 6538/P, ATCC 9144, ATCC 12598 and five clinical strains); assay: MIC assay, broth microdilution; assay type: cell-based; conditions: planktonic S. aureus, 5 × 10^5 CFU/mL, 18 h, 37 °C, Figure 1, mean MIC
Experimental: Antimicrobial activity was determined against five reference strains: S. aureus ATCC 25923, S. aureus ATCC 6538, S. aureus ATCC 6538/P, S. aureus ATCC 9144, and S. aureus ATCC 12598, which were obtained from the Polish Collection of Microorganisms (Polish Academy of Sciences, Wroclaw), and against five clinical strains of S. aureus, which were provided by the Department of Oral Microbiology, Medical University of Gdańsk (Poland). These strains were also characterized in terms of methicillin resistance. Preliminary identification and detection was conducted on the ChromID MRSA/ChromID S. aureus biplate (bioMérieux) for simultaneous detection of S. aureus and methicillin-resistant S. aureus (MRSA). All tested strains (both reference and clinical S. aureus) were stored in cryo-vials (Roti®-Store, Carl Roth) and recultivated before all microbiological tests. All strains were cultured in three different media: Brain-Heart Infusion Broth (BHI, Biocorp, Warsaw, Poland), Mueller Hinton Broth (MH, Biocorp), and Tryptic-Soy Broth (TSB, Biocorp). Moreover, the stock solutions of lipopeptides were prepared in two different solvents: PBS and an aqueous solution of acetic acid/BSA (0.01% and 0.2% respectively). MIC was determined by broth microdilution method on polystyrene 96-well plates. Bacteria at initial inoculums of 5 × 10^5 CFU/mL were exposed to lipopeptides at concentrations ranging from 0.5 to 256 µg/mL and incubated for 18 h at 37 °C. The MIC value was taken as the lowest concentration of the compound that inhibited the growth of the microorganisms. All assays were performed in triplicate and included the growth and sterility control.

[3] = tested on: Pseudomonas aeruginosa; conditions: cited from earlier work
Source text: (§1) It should be noted that conclusions drawn from the in vitro studies are not always consistent with those determined in vivo. Nevertheless, these “not-ideal” conditions may reveal an unexpected activity of new compounds. […] In this case, the MIC values decreased down to sixteenfold in the presence of plasma. The synergistic effect may be connected with complement proteins or clotting factors, as the a ...

[4] = tested on: Escherichia coli; conditions: cited from earlier work
Source text: as §1

[5] = tested on: Enterococcus faecalis; conditions: cited from earlier work
Source text: as §1

[6] = tested on: S. aureus; conditions: cited from earlier work
Source text: as §1

| Substance | antistaphylococcal activity [1] | MIC values in BHI and TSB compared with MH (influence of medium type) [2] | also measured |
| --- | --- | --- | --- |
| Pal-KKKK-NH2 | high antistaphylococcal activity |  |  |
| Pal-CRKKKC-NH2 (disulfide) [palmitoylated lipopeptide amide with intramolecular disulfide bridge] |  | slightly more active in MH |  |
| Pal-CKKKRC-NH2 [Pal-CKKKRC-NH2 (linear), non-cyclized palmitoylated lipopeptide amide with two cysteine residues] |  | this dependence was not observed |  |
| Pal-RRR-NH2 | high antistaphylococcal activity |  |  |
| protegrin-1 (RGGRLCYCRRRFCVCVGR-NH2; disulfide 8-13, 6-15; ends not checked; UniProt P32194 131-148, looked up) [antimicrobial peptide studied by Steinberg et al. (1997)] |  |  | fold lowering of MIC with peptide prepared in aqueous acetic acid and BSA vs reference CLSI protocol [3]: up to 30 times; fold lowering of MIC with peptide prepared in aqueous acetic acid and BSA vs reference CLSI protocol [4]: up to 30 times; fold lowering of MIC with peptide prepared in aqueous acetic acid and BSA vs reference CLSI protocol [5]: 5 times; fold lowering of MIC with peptide prepared in aqueous acetic acid and BSA vs reference CLSI protocol [6]: 5 times |
| Pal-CKKRKC-NH2 (disulfide) [palmitoylated lipopeptide amide with intramolecular disulfide bridge] |  | slightly more active in MH |  |
